Measured values: US7951772B2, “Tumor-activated prodrug compounds and treatment” (La Region Wallonne, priority 1994, dated 2011)
≈ marks a conversion by molar mass, not a printed value. Where “and” joins values, the source holds several entries; their conditions need not be identical. Equal values may be shown once. Read-outs that look alike come from different tables or passages of the source. Square brackets hold non-standard residues; d marks the D form. Peptide text beside a SMILES is read from it. * marks the point of attachment. X1 = COc1cccc2c1C(=O)c1c(O)c3c(c(O)c1C2=O)CC(O)(C(=O)CO)CC3OC1CC(N*)C(O)C(C)O1; pGlu = O=C1CC[CH](C(=O)O)N1

Assays:
[1] = test system: conditioned medium from MCF7/6 mammary carcinoma cells
[2] = test system: female NMRI mice; experiment: In vivo acute toxicity, intravenous route; design: species or system mouse
Protocol: (§1) In the in vivo study of the acute toxicity of a medicinal product, determination of the median lethal dose (lethal dose for 50% of the animals or LD50) occupies an important place. […] The LD50 is a simple test in which increasing amounts of the test product are administered intravenously (i.v.) in a single injection and intraperitoneally (i.p.) in 5 injections, one injection daily for 5 consecutive days. The mortality of the animals is monitored as a function of time. At the end of the observation period, usually 30 days, the value of the LD50 is obtained by linear regression of the percentage mortality (on a probit scale) as a function of the logarithm of the dose administered (O. K. Chan and A. W. Hayes, Principles and methods for acute toxicity and eye irritancy, in Principles and methods of toxicology, Second edition. Ed. by A. W. Hayes, Raven Press, New York, USA (1989), pp. 169-220; D. Deprez-De Campeneere and A. Trouet. DNA-Anthracycline Complexes. I. Toxicity in mice and chemotherapeutic activity against L1210 Leukaemia off Daunorubicin-DNA and Adriamycin-DNA, Eur. J. Cancer, 16 (1980), pp. 981-986; H. E. Skipper, L. H. Schmidt, A. Goldin and J. M. Venditti. A manual on quantitative drug evaluation in experimental tumor systems, Cancer Chemother. Rep. 17 (1.962), pp. 1-178).
(§2) The acute toxicity of these two drugs was studied via the i.v. and i.p. routes on a single strain of mouse. Female NMRI mice (nonconsanguineous SPF-Han, approximately 5 weeks old and of mean weight 14.6 grams, supplied by IFFA-CREDO Belgium) remained in quarantine for one week.
(§3) Injections were performed systematically in the morning (single injection into the caudal vein for the i.v. route and injections on 5 consecutive days into the peritoneum for the i.p. route), using 1.0 ml syringes and sterile 30 G (i.v.) and 27 G (i.p) needles. All handling of animals was performed with gloves, and maintenance of the animals was performed systematically every week.
(§4) DNR was injected i.v. at doses of 10, 15, 20, 25, 30 and 35 mg/kg and i.p. at doses of 2.0; 2.5; 3.0 and 3.5 mg/kg.
(§5) The concentrations of the solutions were verified by spectrophotometry.
(§6) From the day of injection (DO) onwards, the mice were monitored clinically, with a daily record of dead mice. The weight of the mice was measured almost every day. The observation period was extended beyond one month so that the signs of late toxicity could be spotted more readily. At the end of the study, the surviving mice were sacrificed, according to the standards pertaining to animal experiments (D. B. McGregor. Ethics in experiments on animals, in Experiments in toxicology, First edition. Ed. by D. Anderson and D. M. Conning. The Royal Society of Chemistry and The Universities Press. Belfast, Ireland (1988), pp. 512-522).

[3] = test system: MCF7/6 human mammary carcinoma cells; experiment: Cytotoxicity with respect to MCF7/6 tumor cells (72 h, Bradford protein); conditions: for IC50: Homo sapiens
Protocol: (§7) After 72 hours, the cells are incubated for 48 hours in the absence of anthracycline, and the cytotoxicity is determined by measuring the cellular proteins by Bradford's technique. […] The experimental points are adjusted to a sigmoid curve which enables the point of inflection, corresponding to the dose at which half of the cells survive (IC50), to be calculated.
(§8) After 72 hours, the cells are incubated for 48 hours in the absence of the anthracycline, and the cytotoxicity is determined by measuring the cellular proteins by Bradford's technique. […] The experimental points are adjusted to a sigmoid curve which enables the point of inflection, corresponding to the dose at which half of the cells survive (IC50), to be calculated.

[4] = test system: female NMRI mice; experiment: In vivo acute toxicity, intraperitoneal route, 5 consecutive days; design: species or system mouse; conditions: i.p. on 5 consecutive days
Protocol: as §1, §2, §3, §4, §5, §6

[5] = test system: MRC5 fibroblast cells; experiment: Accumulation in MRC5 normal fibroblast cells (HPLC of cell extracts); conditions: for Accumulation after 6 h, DOX / Accumulation after 6 h, Leu-DOX: 10 μg eq. DOX/ml
Protocol: At various times, the accumulation of the prodrugs and of their fluorescent metabolites was determined by HPLC after extraction of the products at basic pH according to a method developed in the laboratory. Accumulations, expressed in μg/mg of cellular proteins, were compared with those of DNR and of L-Leu-DNR. The metabolites were identified by determining the retention times of reference products synthesized in the laboratory.
(§9) After various times, the accumulation of the prodrugs and of their fluorescent metabolites was determined by HPLC after extraction of the products at basic pH according to a method developed in the laboratory. Accumulations, expressed in μg/mg of cellular proteins, were compared with those of DOX and of L-Leu-DOX. The metabolites were identified by determining the retention times of reference products synthesized in the laboratory.

[6] = test system: MRC5 fibroblast cells; experiment: Cytotoxicity with respect to MRC5 normal cells (72 h, Bradford protein); conditions: for IC50: Homo sapiens
Protocol: as §7, §8

[7] = test system: MCF7/6 human mammary carcinoma cells; experiment: Accumulation in MCF7/6 tumor cells (HPLC of cell extracts)
Protocol: After various times, the accumulation of the prodrugs and of their fluorescent metabolites were determined by HPLC after extraction of the products at basic pH according to a method developed in the laboratory. Accumulations, expressed in μg/mg of cellular proteins, were compared with those of DNR and of DOX as well as with those of L-Leu-DNR and L-Leu-DOX. The metabolites were identified by determining the retention times of reference products synthesized in the laboratory.
as §9

[8] = test system: conditioned medium from MCF7/6 mammary carcinoma cells; experiment: Degradation in conditioned medium from MCF7/6 mammary carcinoma cells (HPLC); conditions: β-Ala-Leu-Ala-Leu-DOX incubated at 37 C in MCF7/6 conditioned medium concentrated 20 times, share of each species

With `COc1cccc2c1C(=O)c1c(O)c3c(c(O)c1C2=O)CC(O)(C(C)=O)CC3OC1CC(NC(=O)C(CC(C)C)NC(=O)C(C)NC(=O)C(CC(C)C)NC(=O)C(C)NC(=O)C(N)CC(C)C)C(O)C(C)O1` [D-Leu-L-Ala-L-Leu-L-Ala-L-Leu-DNR] the “Hydrolysis, MCF-7/6 Conditioned Medium” value [1] was “+”.
In the case of `COc1cccc2c1C(=O)c1c(O)c3c(c(O)c1C2=O)C[C@@](O)(C(C)=O)C[C@@H]3O[C@H]1C[C@H](N)[C@H](O)[C@H](C)O1` [DNR, daunorubicin], the mice dying ([2]; single i.v., 25 mg/kg, groups of 7, days 12 to 42) is reported as 6, the “mortality begins on day” value ([2]; single i.v., 30 mg/kg) is reported as 7 days and the “mice dead out of 7 at first mortality” value ([2]; single i.v., 30 mg/kg, day 7) is reported as 1. The “mortality begins on day” value ([2]; single i.v., 35 mg/kg) was 6 days, the “mice dead out of 7 at first mortality” value ([2]; single i.v., 35 mg/kg, day 6) was 2 and the mortality ([2]; single i.v., 10, 15 and 20 mg/kg) was “no mortality”. The “day of maximal mean weight loss” value ([2]; single i.v., 10-35 mg/kg) was 7 days, the “weight recovery of surviving mice” value ([2]; single i.v., 30 and 35 mg/kg, 30 days after injection) was “do not recover their initial weight” and the IC50 ([3]; MCF7/6) was 0.09 ± 0.004 µg/mL (≈ 0.171 µM). The “day on which no mouse is surviving” value ([4]; 2.0 mg/kg) was 29 days, the “mice dead out of 7 at first mortality” value ([4]; 2.0 mg/kg, day 11) was 1 and the “mice surviving on day 43” value ([4]; 2.5 mg/kg) was “one”. For the same molecule, the “mice dead out of 7 at first mortality” value ([4]; 2.5 mg/kg, day 11) was 2, the “day on which no mouse is surviving” value ([4]; 3.0 mg/kg) was 19 days and the “mice dead out of 7 at first mortality” value ([4]; 3.0 mg/kg, day 9) was 2. The “day on which no mouse is surviving” value ([4]; 3.5 mg/kg) was 12 days, the “mice dead out of 7 at first mortality” value ([4]; 3.5 mg/kg, day 7) was 1 and the mortality from day ([4]; dose of 2.0 mg/kg) was 11 days. The mortality from day ([4]; dose of 2.5 mg/kg) was 11 days, the mortality from day ([4]; dose of 3.0 mg/kg) was 9 days and the mortality from day ([4]; dose of 3.5 mg/kg) was 7 days. For the same molecule, the “weight loss, % of the initial weight” value ([4]; irrespective of the dose (2.0-3.5 mg/kg)) was 30%, the accumulation plateau ([5]; MRC5 cells, 10 μg/ml, after 6 hours) was ~76 μg/mg of cellular proteins and the “Intracellular concentration, Starting material” value ([5]; MRC5 cells, 6 hours of incubation, 10 μg eq. DNR/ml) was 77.4 μg/mg cellular proteins. For the same molecule, the IC50 ([6]; MRC5) was 0.01 ± 0.006 µg/mL (≈ 0.019 µM), the maximum accumulation ([7]; MCF7/6 cells, 10 μg/ml, after 6 hours of incubation) was ~15 μg/mg of cellular proteins and the “Intracellular concentration, Starting material” value ([7]; MCF7/6 cells, 6 hours of incubation, 10 μg eq. DNR/ml) was 14.9 μg/mg cellular proteins. The “ratio of the intracellular DNR levels (MCF7/6 to MRC5)” value ([7]; cells incubated in the presence of the compound) was 0.19.
With `COc1cccc2c1C(=O)c1c(O)c3c(c(O)c1C2=O)C[C@@](O)(C(=O)CO)C[C@@H]3O[C@H]1C[C@H](N)[C@H](O)[C@H](C)O1` [DOX, doxorubicin] the IC50 ([3]; MCF7/6, 72 h, read-out: IC50 (72 h)) was 0.0025 µg/mL (≈ 0.0046 µM), the “Accumulation after 6 h, DOX” value ([5]; MRC5 cells) was 11.20 μg/mg cellular prot and the “intracellular levels of the active therapeutic agent in normal cells compared with tumor cells” value ([5]; MRC5 versus MCF7/6, 6 h incubation) was “twice as high”. For the same molecule, the IC50 ([6]; MRC5, 72 h, read-out: IC50 (72 h)) was 0.018 µg/mL (≈ 0.0331 µM) and the “Accumulation after 6 h, DOX” value ([7]; MCF7/6 cells, 10 μg eq. DOX/ml) was 6.9 μg/mg cellular prot. and 6.90 μg/mg cellular prot.
In the case of `COc1cccc2c1C(=O)c1c(O)c3c(c(O)c1C2=O)CC(O)(C(C)=O)CC3OC1CC(NC(=O)C(CC(C)C)NC(=O)CNC(=O)C(CC(C)C)NC(=O)CN)C(O)C(C)O1` [Gly-L-Leu-Gly-L-Leu-DNR], the “Hydrolysis, MCF-7/6 Conditioned Medium” value [1] is reported as “+”.
In the case of `COc1cccc2c1C(=O)c1c(O)c3c(c(O)c1C2=O)CC(O)(C(=O)CO)CC3OC1CC(NC(=O)C(CC(C)C)NC(=O)C(C)N)C(O)C(C)O1` [L-Ala-L-Leu-DOX], the “Starting material or Metabolite, After 2 hours” value [8] is reported as less than 1% and the “Starting material or Metabolite, Time 0” value [8] is reported as 0%.
With `COc1cccc2c1C(=O)c1c(O)c3c(c(O)c1C2=O)CC(O)(C(C)=O)CC3OC1CC(NC(=O)C(CC(C)C)NC(=O)C(C)NC(=O)C(CC(C)C)NC(=O)C(C)N)C(O)C(C)O1` [L-Ala-L-Leu-L-Ala-L-Leu-DNR] the “Hydrolysis, MCF-7/6 Conditioned Medium” value [1] was “+”.
With `COc1cccc2c1C(=O)c1c(O)c3c(c(O)c1C2=O)C[C@@](O)(C(=O)CO)C[C@@H]3O[C@H]1C[C@H](NC(=O)[C@@H](N)CC(C)C)[C@H](O)[C@H](C)O1` [L-Leu-DOX, N-L-leucyldoxorubicin] the “IC50 (72 h)” value ([3]; MCF7/6 cells) was 0.020 µg/mL (≈ 0.0305 µM), the “times less cytotoxic than DOX” value ([3]; MCF7/6 cells, 72 hours) was 8 times and the “Starting material or Metabolite, After 2 hours” value [8] was 68%. For the same molecule, the “Starting material or Metabolite, Time 0” value [8] was 0%, the “Accumulation after 6 h, DOX” value ([5]; MRC5 cells) was 0.3 μg/mg cellular prot and the “Accumulation after 6 h, Leu-DOX” value ([5]; MRC5 cells) was 1.4 μg/mg cellular prot. For the same molecule, the “Accumulation after 6 h, DOX” value ([5]; MRC5 cells, listed as Leu-DOX) was 0.30 μg/mg cellular prot, the “Accumulation after 6 h, Leu-DOX” value ([5]; MRC5 cells, listed as Leu-DOX) was 1.40 μg/mg cellular prot and the “IC50 (72 h)” value ([6]; MRC5 cells) was 0.30 µg/mL (≈ 0.457 µM). For the same molecule, the “times less cytotoxic than DOX” value ([6]; MRC5 cells, 72 hours) was 17 times, the “Accumulation after 6 h, DOX” value ([7]; MCF7/6 cells, 10 μg eq. DOX/ml) was 0.25 μg/mg cellular prot and the “Accumulation after 6 h, Leu-DOX” value ([7]; MCF7/6 cells, 10 μg eq. DOX/ml) was 1.10 μg/mg cellular prot. For the same molecule, the “accumulation, times less than DOX” value ([7]; MCF7/6 cells, after 6 hours) was 6 times.
For `COc1cccc2c1C(=O)c1c(O)c3c(c(O)c1C2=O)C[C@@](O)(C(=O)CO)C[C@@H]3O[C@H]1C[C@H](NC(=O)[C@H](CC(C)C)NC(=O)[C@H](C)NC(=O)[C@@H](N)CC(C)C)[C@H](O)[C@H](C)O1` [L-Leu-L-Ala-L-Leu-DOX], the “Starting material or Metabolite, After 2 hours” value [8] was less than 1% and the “Starting material or Metabolite, Time 0” value [8] was 0%.
In the case of `COc1cccc2c1C(=O)c1c(O)c3c(c(O)c1C2=O)CC(O)(C(C)=O)CC3OC1CC(NC(=O)C(CC(C)C)NC(=O)C(C)NC(=O)C(CC(C)C)NC(=O)C(C)NC(=O)CCC(=O)O)C(O)C(C)O1` [Succ-L-Ala-L-Leu-L-Ala-L-Leu-DNR], the “Hydrolysis, MCF-7/6 Conditioned Medium” value [1] is reported as “−”.
For `COc1cccc2c1C(=O)c1c(O)c3c(c(O)c1C2=O)CC(O)(C(=O)CO)CC3OC1CC(NC(=O)C(CC(C)C)NC(=O)C(C)NC(=O)C(CC(C)C)NC(=O)C(C)NC(=O)C2CCC(=O)N2)C(O)C(C)O1` [pGlu-L-Ala-L-Leu-L-Ala-L-Leu-DOX] ([pGlu]ALAL-X1; configuration not given here), the “Hydrolysis, MCF-7/6 Conditioned Medium” value [1] was “−”.
For β-Ala-L-Leu-L-Ala-L-Leu-COU, the “Hydrolysis, MCF-7/6 Conditioned Medium” value [1] was “+”.
